# Experimental data: patent US20030134859A1 (SANKYO COMPANY, LIMITED, priority 2000, published 2003)
# Columns and labels:
# [1] = test system: KK mice; assay: Plasma glucose lowering effects in hyperglycemic KK mice; type: in vivo, mouse; conditions: male KK mice, 0.3 weight % in food for 1 week
# Method: Unless otherwise described, mice were bred individually, and food and water were taken ad libitum in the following experiments. For this, F2 food powder (Funahashi Farm) was used. Plasma glucose level in the blood collected from the tail vein of a mouse with a heparin-coated glass tube was determined with the Glucoloader (A&T Corp.).
# Male KK mice (purchased from Clea Japan, Inc) were purchased at 6 weeks old and were bred until 19 weeks old through an acclimatisation period and test period. The plasma glucose level of each mouse was determined and the occurrence of hyperglycemia in the mice was confrrmed. The animals with a plasma glucose level of 350 mg/dl and higher were screened and the animals for use in the experiment were selected. The selected mice were divided into a control group and a test compound treated group (n=6/group) matched for body weights and plasma glucose levels.
# In the control group, conventional food powder was given-to each mouse, while in the test compound-treated group, the food comprising the food powder (F2) mixed with the test compound (final concentration: 0.3 weight %) was given to each mouse. The mice in both groups were bred for 1 week.
# One week after the treatment, the blood glucose level was determined.
# [2] = test system: lenses; assay: Cataract assessment: opacity of cultured lenses exposed to hydrogen peroxide; set-up: species or system rat; conditions: 100 nM test compound with 5 mM hydrogen peroxide; 24 hr; clear: 0, slightly opaque: 1, moderately opaque: 2
# Method: The lenses were isolated from Sprague-Dawley rats (male, purchased from SLC Japan), and the lenses were pre-cultured in a medium (Medium-199: GIBCO BRL) for 3 hr and the lenses maintaining transparency were selected and used in the experiment. The crystalline lenses were cultured for 24 hr in the following 3 groups; 1) in Medium-199 (3 mL), 2) in Medium-199 (3 mL) containing hydrogen peroxide (final concentration: 5 mM) and 3) in Medium-199 (3 mL) containing the test compound (final concentration: 100 nM), DMSO (final concentration: 0.1% v/v) and hydrogen peroxide (final concentration: 5 mM). After finalising culturing, the opacity of the lens was scored based on the following criteria: clear: 0, slightly opaque: 1, moderately opaque: 2. Thus the improving effect of the test compound on cataracts was assessed.
# [3] = test system: ABCA1 mRNA; assay: Quantitative analysis of ABCA1 mRNA (TaqMan PCR) in RAW264.7 cells; type: cell-based, mouse; conditions: 100 nM test compound, 24 hr, normalised to β-actin, DMSO = 100
# Method: The mouse monocyte/macrophage cell line, RAW264.7 (ATCC TIB71) was purchased from Dainippon Pharmaceutical Co., Ltd. As the medium, the Dulbecco's modified Eagle's medium (DMEM medium; GIBCO, Cat. No. 11995-040) containing bovine fetal serum (the final concentration: 10% (v/v), MOREGATE, lot No. 474030), penicillin G (the final concentration: 50 units/mL, GIBCO) and streptomycin (the final concentration: 20 μg/mL, GIBCO) was used.
# The culture of RAW264.7 cells was carried out in a CO2 incubator (37° C., 95% R.H., 5% of CO2).
# A 2 ml volume of RAW264.7 cells suspension (1×10^6 cells/mL) was plated in each well of a 6-well plate (2×10^6 cells/well) and the cells were incubated for 2 hr in a CO2 incubator. The test compounds dissolved in DMSO were diluted with DMEM medium by 20 times, and were added to the wells at a volume of 4 μL/well (final concentration of the test compound: 100 nM). As the control, the DMSO solution was diluted with the DMEM medium by 20 times, and was added to the wells at the volume of 4 μL/well. After the cells were cultured in a CO2 incubator for 24 hr, the medium was removed and the total RNA was purified by using an RNeasy Mini Kit (Qiagen), according to the protocol attached. The concentration of the RNA in the samples obtained was calculated from absorbance at 260 nm (A260=1=40 μg/ml). Six (6) μg of total RNA were diluted with RNAase-free water so as to be 22.6 μL, which was heated at 65° C. for 10 min, and then was cooled on ice. The RNA in the solution was used as the template, and the cDNA was synthesized by using a First-strand cDNA Synthesis Kit (Amersham Pharmacia Biotech). In this reaction, a solution was prepared having the following composition and was reacted at 37° C. for 1 hr.
# After the reaction, 3 μL of soution were collected from each of the reaction mixtures of the test compound-treated cell samples and that of the control cell samples. The mixed solution was used as the standard solution. The standard solution and each reaction solution were purified with a Chroma Spin-100+DEPC-H2O Column according to the protocol attached, and they were used as the template for TaqMan PCR (Template). In order to draw the calibration curve, the standard solution was diluted by every 5 times for 5 steps and each solution was used for TaqMan PCR. TaqMan PCR was carried out in ABCA1 and β-actin. As Primers for use in the TaqMan PCR, 4 oligonucleotides (abca1 forward (S3), abca1 reverse (AS3), β-actin forward (S4) and β-actin reverse (AS4)) were designed which are shown in sequences No. 5 to 8 in the sequence table described later. The synthesis and purification of these 4 oligomers was ordered from Amersham Pharmacia Biotech Co.
# As FAM-TAMRA labelled TaqMan Probe, 2 kinds of oligonucleotides (abca1 (p1) and β-actin (p2)) were designed and were ordered from Applied Biosystems Co. to synthesize and purify.
# The following reaction mixture of ABCA1 or β-actin was divided into 2 wells of a MicroAmp Optical 96-well Reaction Plate (Applied Biosystem Co.). TaqMan Universal PCR Master Mix was purchased from Applied Biosystem Co.
# The plate was covered with a MicroAmp Optical Cap (Applied Biosystems Co.), and TaqMan PCR was carried out by using an ABI PRISM 7,700 Sequence Detection System (Applied Biosystem Co.) under the following conditions:
# An analysis was made according to the procedures described in the manual of Sequence Detection Software (Applied Biosystem Co.) and the increased rate of ABCA1 mRNA due to the test compound was calculated based on the following equation.
# A: Amount of the ABCA1 mRNA in the presence of the test compound
# B: Amount of the β-actin mRNA in the presence of the test compound
# C: Amount of the ABCA1 mRNA in the presence of DMSO
# D: Amount of the β-actin mRNA in the presence of DMSO
# Increase Rate (%) of ABCA1 mRNA=(A/B)/(C/D)×100
smiles,measurement,setting,value
"O=C(Nc1ccc(OC(F)(F)F)cc1)c1cc([N+](=O)[O-])ccc1Cl [Example 18, N-(4-Trifluoromethyloxyphenyl)-(2-chloro-5-nitrophenyl)carboxamide]",plasma glucose on Day 7,[1]; n=6/group,315 ± 14
same,% of inhibition (vs. control),[1]; plasma glucose on Day 7,55%
"Cc1c(C)c2c(c(C)c1O)C(=O)CC(C)(COc1ccc(NC(=O)c3cc([N+](=O)[O-])ccc3Cl)cc1)O2 (centres unmarked) [Example 92, N-[4-(6-Hydroxy-2,5,7,8-tetramethyl-4-oxochroman-2-ylmethoxy)phenyl]-(2-chloro-5-nitrophenyl)carboxamide]",opacity of the lens (average score),[2],1.0
"CCN(CC)c1ccc(-c2ccc(NC(=O)c3cc([N+](=O)[O-])ccc3Cl)cc2)cc1 [Example 217, N-[4-[4-(N,N-Diethylamino)phenyl]phenyl]-(2-chloro-5-nitrophenyl)carboxamide]",Rate of Increase (%) of ABCA1 mRNA,[3],187.0%
"CCN(C)c1ccc(-c2ccc(NC(=O)c3cc([N+](=O)[O-])ccc3Cl)cc2)cc1 [Example 218, N-[4-[4-(N-Ethyl-N-methylamino)phenyl]phenyl]-(2-chloro-5-nitrophenyl)carboxamide]",Rate of Increase (%) of ABCA1 mRNA,[3],190.0%
